{"source": "paper PMC9481570", "about": "“A small molecule antagonist of SMN disrupts the interaction between SMN and RNAP II” (Nature Communications, 2022)", "key": {"TDRD2": {"target": "T1, TDRD2 (Homo sapiens, UniProt Q9Y2W6)", "T1 construct": "TDRD2 (aa 327–420); His (N, cleaved yes); made in house; host or cells: E. coli BL21 (DE3) Codon plus RIL", "T1 sequence (Q9Y2W6 327-420)": "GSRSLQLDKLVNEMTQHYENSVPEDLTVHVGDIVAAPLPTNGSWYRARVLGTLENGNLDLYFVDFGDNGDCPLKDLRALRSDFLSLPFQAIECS", "assay": "ITC binding to TDRD2", "conditions": "Fig. 1c", "description": "(§1) The coding DNA fragments of following Tudor domains were cloned into pET28-MHL vector: SMN (aa 82–147), UHRF1 (aa 126–285), SMNDC1 (aa 53–130), TDRD3 (aa 554–611), SND1 (aa 650–910), TDRD2 (aa 327–420), FXR1 (aa 2–132), PHF1 (aa 28–87), SGF29 (aa 115–293), JMJD2A (aa 897–1101), 53BP1 (aa 1483–1606), SETDB1 (aa 190–410), LBR (aa 1–67), ZGPAT (aa 120–271). The coding regions of chromodomain of CBX7 (aa 8–62), PWWP domain of DNMT3A (aa 275–417), WD40 repeats of WDR5 (aa 24–334) and CW domain of ZCWPW2 (aa 21–78) were also subcloned into pET28-MHL vector to generate N-terminally His-tagged fusion protein. The MBT repeats of L3MBTL1 (aa 200–522) and L3MBTL2 (aa 170–625) were subcloned into pET28GST-LIC vector to generate N-terminally GST-His-tagged fusion protein. All the plasmids were generated by ligase independent cloning (Vazyme Biotech, C112 or ABclonal Technology, RK21020). […] The molecular weight of all protein samples was measured by mass spectrometry.\n(§2) For the ITC measurement, the concentrated proteins were diluted into 20 mM Tris-HCl, pH 7.5, 150 mM NaCl (ITC buffer); the lyophilized compounds were dissolved in the same buffer, and the pH value was adjusted by adding 2 M NaOH or 2 M HCl. […] Compound concentrations were calculated from the mass and the volume of the solvent. […]"}, "FXR1": {"target": "T2, FXR1 (Homo sapiens, UniProt P51114)", "T2 construct": "FXR1 (aa 2–132); His (N, cleaved yes); made in house; host or cells: E. coli BL21 (DE3) Codon plus RIL", "T2 sequence (P51114 2-132)": "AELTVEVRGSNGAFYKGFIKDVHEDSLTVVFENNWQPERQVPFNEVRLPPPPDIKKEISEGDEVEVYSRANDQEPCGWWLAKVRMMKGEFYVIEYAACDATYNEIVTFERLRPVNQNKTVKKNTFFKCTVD", "assay": "ITC binding to FXR1", "description": "as §1, §2"}, "SGF29": {"target": "T3, SGF29 (Homo sapiens, UniProt Q96ES7)", "T3 construct": "SGF29 (aa 115–293); His (N, cleaved yes); made in house; host or cells: E. coli BL21 (DE3) Codon plus RIL", "T3 sequence (Q96ES7 115-293)": "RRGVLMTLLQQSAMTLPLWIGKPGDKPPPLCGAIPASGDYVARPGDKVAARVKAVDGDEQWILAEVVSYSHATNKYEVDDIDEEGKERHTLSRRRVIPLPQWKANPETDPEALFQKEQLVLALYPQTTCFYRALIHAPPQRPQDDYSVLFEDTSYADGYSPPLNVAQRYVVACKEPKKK", "assay": "ITC binding to SGF29", "conditions": "Fig. 1c", "description": "as §1, §2"}, "53BP1": {"target": "T4, 53BP1 (Homo sapiens, UniProt Q12888)", "T4 construct": "53BP1 (aa 1483–1606); His (N, cleaved yes); made in house; host or cells: E. coli BL21 (DE3) Codon plus RIL", "T4 sequence (Q12888 1483-1606)": "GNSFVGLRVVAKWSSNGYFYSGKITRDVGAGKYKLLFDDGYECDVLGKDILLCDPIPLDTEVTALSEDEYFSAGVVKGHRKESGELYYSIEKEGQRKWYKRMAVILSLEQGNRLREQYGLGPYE", "assay": "ITC binding to 53BP1", "conditions": "Fig. 1c", "description": "as §1, §2"}, "L3MBTL2 (MBT)": {"target": "T5, L3MBTL2 (MBT) (Homo sapiens, UniProt Q969R5)", "T5 construct": "L3MBTL2 (aa 170–625); GST-His (N, cleaved yes); made in house; host or cells: E. coli BL21 (DE3) Codon plus RIL", "T5 sequence (Q969R5 170-625)": "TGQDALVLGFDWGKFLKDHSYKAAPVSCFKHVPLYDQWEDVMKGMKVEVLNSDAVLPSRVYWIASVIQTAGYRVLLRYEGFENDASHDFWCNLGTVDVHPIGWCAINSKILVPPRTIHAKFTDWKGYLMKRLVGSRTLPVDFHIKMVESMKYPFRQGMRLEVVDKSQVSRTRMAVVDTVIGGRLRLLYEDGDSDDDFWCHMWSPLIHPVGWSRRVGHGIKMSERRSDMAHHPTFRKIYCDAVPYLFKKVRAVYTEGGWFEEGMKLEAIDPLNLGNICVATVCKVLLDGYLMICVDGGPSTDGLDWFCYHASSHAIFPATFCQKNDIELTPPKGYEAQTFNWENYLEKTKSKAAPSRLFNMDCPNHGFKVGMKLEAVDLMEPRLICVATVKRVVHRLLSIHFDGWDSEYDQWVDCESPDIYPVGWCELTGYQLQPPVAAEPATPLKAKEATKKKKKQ", "assay": "ITC binding to MBT repeats of L3MBTL2", "conditions": "Fig. 1c", "description": "as §1, §2"}, "CBX7 (CD)": {"target": "T6, CBX7 (CD) (Homo sapiens, UniProt O95931)", "T6 construct": "CBX7 (aa 8–62); His (N, cleaved yes); made in house; host or cells: E. coli BL21 (DE3) Codon plus RIL", "T6 sequence (O95931 8-62)": "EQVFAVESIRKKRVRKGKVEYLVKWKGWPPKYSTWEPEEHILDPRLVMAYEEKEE", "assay": "ITC binding to chromodomain of CBX7", "conditions": "Fig. 1c", "description": "as §1, §2"}, "SMN_Y127A": {"target": "T7, SMN_Y127A (Homo sapiens, UniProt Q16637, Y127A)", "T7 construct": "cloned into pET28-MHL vector: SMN (aa 82–147); His (N, cleaved yes); made in house; host or cells: E. coli BL21 (DE3) Codon plus RIL", "T7 sequence (Q16637 82-147 Y127A)": "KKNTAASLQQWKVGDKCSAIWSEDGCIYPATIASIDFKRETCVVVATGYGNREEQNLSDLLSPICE", "assay": "ITC binding to SMN Tudor mutant Y127A", "conditions": "Fig. 3d", "description": "as §1, §2"}, "SND1_F740W": {"target": "T8, SND1_F740W (Homo sapiens, UniProt Q7KZF4, F740W)", "T8 construct": "SND1 (aa 650–910); His (N, cleaved yes); made in house; host or cells: E. coli BL21 (DE3) Codon plus RIL", "T8 sequence (Q7KZF4 650-910 F740W)": "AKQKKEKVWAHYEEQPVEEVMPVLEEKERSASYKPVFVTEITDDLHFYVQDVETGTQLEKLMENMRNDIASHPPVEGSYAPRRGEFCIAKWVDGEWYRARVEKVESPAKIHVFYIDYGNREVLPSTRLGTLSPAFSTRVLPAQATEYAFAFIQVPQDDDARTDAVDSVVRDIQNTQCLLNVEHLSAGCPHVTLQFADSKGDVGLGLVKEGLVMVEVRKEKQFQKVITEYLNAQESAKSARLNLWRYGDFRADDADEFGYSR", "assay": "ITC binding to SND1 mutant F740W", "conditions": "Supplementary Fig. 11c, iTC-200; read-out: Kd, ITC binding curve, SND1_F740W", "description": "as §1, §2"}, "TDRD3": {"target": "TDRD3 (Homo sapiens, UniProt Q9H7E2)", "sequence (Q9H7E2 554-611)": "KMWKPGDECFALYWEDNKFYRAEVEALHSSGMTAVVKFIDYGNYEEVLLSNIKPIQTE", "assay": "ITC binding to TDRD3", "parameters": "TDRD3 (aa 554–611); His (N, cleaved yes); made in house; host or cells: E. coli BL21 (DE3) Codon plus RIL", "conditions": "Supplementary Figs. 2 and 11b (VP-ITC); read-out: Kd, ITC binding curve, TDRD3", "description": "as §1, §2"}}, "data": [{"smiles": "Cn1c2c(c(=N)c3c1CCC3)CCC2", "note": "[Compound 1, 4-methyl-2,3,4,5,6,7-hexahydrodicyclopenta[b,e]pyridin-8(1H)-imine]", "values": [{"measurement": "Kd", "setting": "TDRD2", "value": "> 244", "unit": "µM"}, {"measurement": "Kd", "setting": "FXR1; ITC, Fig. 1c", "value": "> 100", "unit": "µM"}, {"measurement": "ITC binding curve, FXR1 (in words)", "setting": "FXR1; Supplementary Fig. 2e", "value": "Weak binding"}, {"measurement": "Kd", "setting": "SGF29", "value": "> 244", "unit": "µM"}, {"measurement": "Kd", "setting": "53BP1", "value": "> 244", "unit": "µM"}, {"measurement": "Kd", "setting": "L3MBTL2 (MBT)", "value": "> 244", "unit": "µM"}, {"measurement": "Kd", "setting": "CBX7 (CD)", "value": "> 244", "unit": "µM"}, {"measurement": "Kd", "setting": "SMN_Y127A", "value": "> 100", "unit": "µM"}, {"measurement": "Kd", "setting": "SND1_F740W", "value": "38 ± 8", "unit": "µM"}, {"measurement": "Kd", "setting": "TDRD3", "value": "11 ± 1", "unit": "µM"}]}]}
